The source of these data is PubChem BioAssay AID504739 (National Center for Advancing Translational Sciences (NCATS), 2011).

The subject of this data set is mouse liver microsomes, LC-MS/MS, half-life. The data set can be described thus: Inhibitors of Bloom's syndrome helicase: Metabolic Stability Profiling. The note with it: at 1 µM; stronger effect = higher value. An excerpt: Survival of cells and the faithful propagation of the genome depend on elaborate mechanisms of detecting and repairing DNA damage. Treatment of advanced cancer relies on radiation therapy or chemotherapy, which kill cancer cells by causing extensive DNA damage. It is often found, that cancer cells develop resistance to therapy through enhanced activity of DNA repair functions; this has led to an increased interest in developing drugs that interfere with DNA repair, which could sensitize cancer cells to conventional therapy. Bloom syndrome helicase (BLM), is important in resolving abnormal DNA structures formed during replication or homologous recombination. Shutting down the expression of BLM leads to chromosomal instability and higher radiation sensitivity in cultured cells. After the completion of a qHTS campaign, secondary assays, and rounds of medicinal chemistry, a compound was identified to be further characterized through in vitro ADME assays. Mouse liver microsomes are created through broken up endoplasmic reticulum from mouse liver. These liver microsomes contain many drug metabolizing enzymes, such as Cytochome P-450s and flavin-containing monooxygenases. Because metabolism is major way of drug clearance, this is an important result. […]
1uM of compound in incubated in mouse liver microsome; the reference compound is ketanserin. […] Samples are analyzed with LC-MS/MS.

The term half-life denotes the time needed for the level to fall by half in the phase considered.

As for `O=C(Nc1ccc(F)c(C(F)(F)F)c1)Nc1nnc(-c2ccncc2)s1`, the half-life is 2 h.
